Assay [1] deals with T1, PLA2 (Sus scrofa, UniProt P00592).
T1 construct: made in house
The experiment in a line: Isothermal calorimetric titration of PLA2 with bile salt. The assay is classed as binding, pig. The conditions noted are these: ITC. As for the experimental part: ITC titration of PLA2 with <1 mM (below the CMC) bile salt stock solution was carried out on the Microcal calorimeter (model VP-itc) with cell volume of 1.42 ml with stirring at 300 rpm. Successive injections were made every 5 min. Standard software was used for the peak integration. The heat change with the internal calibration associated with the dilution of the titrant in the […] was subtracted from the heat change obtained by the injection of the bile salt in the presence of 8.5 μM PLA2. The net heat change per injection in the presence of PLA2 was integrated to obtain the total heat change as a function of the total added amphiphile concentration.

In assay [2] the target is T2, PLA2 K87W/W3F (Sus scrofa, UniProt P00592, K109W/W25F).
T2 construct: made in house
T2 sequence (P00592 23-146 W25F/K109W): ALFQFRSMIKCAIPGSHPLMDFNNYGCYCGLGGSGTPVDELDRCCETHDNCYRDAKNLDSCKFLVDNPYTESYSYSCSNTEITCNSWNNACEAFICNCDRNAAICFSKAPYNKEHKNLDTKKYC
The experiment in a line: Bile salt binding by Trp emission, K87W/W3F PLA2. The arrangement: species or system pig. The settings on record: read-out: KEB. As for the experimental part:
(§1) Fluorescence emission spectrum or time course of the intensity change from tryptophan or the resonance energy transfer probe TMA-DPH were measured in the ratio mode on SLM-Aminco AB2 in a 1 cm cuvette [31, 32] in 1.6 ml stirred buffer containing 1 or 2 μM PLA2 in 10 mM Tris, 5 mM CaCl2 and 20 mM NaCl at pH 8.0 and 24° C. The slit-widths were 4 nm with excitation at 280.
(§2) As shown in [45], the binding of decylsulfate to the R site is accompanied by a modest increase in the emission intensity from Trp-3. […] As summarized in Table 2, the value of KEB depends on the position of Trp, although Hill coefficient remains 1. […] Note that KEB for the EB complex of ΔPLA2 is about 7-fold larger than that for PLA2.

The target in assay [3] is T3, pig pancreatic IB PLA2 (Sus scrofa, UniProt P00592).
T3 construct: made in house
T3 sequence (P00592 23-146): as the sequence (P00592 23-146 W25F/K109W) above, with F3W, W87K counted along it
The experiment in a line: Rate-lowering of hydrolysis of DMPC + 0.05 mole fraction cholate vesicles by pig pancreatic PLA2. Type of assay: biochemical. The conditions noted are these: 0.03 mole fraction; DMPC + 0.05 mole fraction cholate. The text has this: (§3) Independent support for selective binding of the rate lowering compounds to a regulatory site on PLA2 comes from the rate-lowering effect of such compounds on the hydrolysis of DMPC vesicles containing 0.05 mole fraction cholate.
(§4) Scores of other compounds in guggul were not active.

The target of assay [4] is T4, human pancreatic IB PLA2 (Homo sapiens, UniProt P04054).
T4 construct: gift of Dr. Suren Tatulian (Orlando, Fla.)
T4 sequence (P04054 23-148): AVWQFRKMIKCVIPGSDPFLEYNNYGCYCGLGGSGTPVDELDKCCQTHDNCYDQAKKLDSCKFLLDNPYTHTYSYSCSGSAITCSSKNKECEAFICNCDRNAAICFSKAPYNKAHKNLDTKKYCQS
The experiment in a line: Rate-lowering of hydrolysis of DMPC + 0.05 mole fraction cholate vesicles by human pancreatic PLA2. Type of assay: biochemical.
From the text: as §3, §4

Assay [5] addresses T5, PLA2 R6W/W3F (Sus scrofa, UniProt P00592, R28W/W25F).
T5 construct: made in house
Kind of assay: Bile salt binding by Trp emission, R6W/W3F PLA2. The arrangement: species or system pig. The conditions noted are these: read-out: KEB. As for the experimental part: as §1, §2

T1 sequence (P00592 23-146): as the sequence (P00592 23-146 W25F/K109W) above, with F3W, W87K counted along it
T5 sequence (P00592 23-146 W25F/R28W): as the sequence (P00592 23-146 W25F/K109W) above, with R6W, W87K counted along it

`C[C@H](CCC(=O)NCCS(=O)(=O)O)[C@H]1CC[C@H]2[C@@H]3[C@H](O)C[C@@H]4C[C@H](O)CC[C@]4(C)[C@H]3CC[C@]12C` [TCDOC, taurochenodeoxycholate]: in assay [1] (8.5 μM PLA2), the S was determined as 3.5 cal/mole/deg. For the same molecule, the Hill coefficient in assay [1] (single hyperbola fit) was 1. Moreover, the Kd in assay [1] (KEB, 8.5 μM PLA2) amounted to 9 µM; in assay [2], 200 µM; in assay [5] it was 50 µM. The “Relative Rate-lowering (%) Activity, pPLA2” value in assay [3] is reported as 26%. Further, the “Relative Rate-lowering (%) Activity, hPLA2” value in assay [4] (0.03 mole fraction, DMPC + 0.05 mole fraction cholate) is 90%. Further, the “relative effectiveness in lowering the rate of hydrolysis by human PLA2” value in assay [4] (DMPC vesicles containing 0.05 mole fraction cholate, FIG. 5B) is “more effective than ezetimibe”.

The values are drawn from patent publication US20080139520A1, “Altering cholesterol and fat uptake by novel allosteric inhibitors of pancreatic phospholipase A2” (priority 2006, published 2008).
